Data taken from patent publication US20220281821A1, “INDAZOLE COMPOUNDS AND THEIR PHARMACEUTICAL COMPOSITIONS” (Jinan University, priority 2019, published 2022).

Columns and labels:
Format in all cases: cell-based, mouse
BaF3-CD74-NTRK1 = target: T1, BaF3-CD74-NTRK1 (Homo sapiens, UniProt P04629); experiment: Cell proliferation inhibition (CCK-8), BaF3-CD74-NTRK1 stable strain; settings: BaF3-CD74-NTRK1, 72 hours
T1 construct: fused on or other part: P04233 (HLA class II histocompatibility antigen gamma chain)
Protocol: (§1) The brief steps of stable strain construction are as follows: construct a pCDNA3.1(+) plasmid vector carrying genes such as CD74-NTRK1, ETV6-NTRK2 and ETV6-NTRK3; the plasmid was electroporated into Ba/F3 cells using the Amaxa® Cell Line Nucleofector® Kit V; 48 hours after electroporated, G418 with a final concentration of 1000 μg/ml was added for screening for two weeks, and then IL3 was removed, and continued screening to obtain polyclonal stable strains; then single clones were selected by a limiting dilution method. The stable strains were then identified using positive drugs, WB and gene sequencing; and the monoclonal clones that were identified as completely correct may be used for the study of cell proliferation inhibitory activity of inhibitors.
(§2) Cell proliferation inhibition activity study: the cells in the logarithmic growth phase were seeded into 96-well plates at 8000-12000 cells/well, and inhibitors at different concentrations (0-10 μM) were added the next day, and incubation was continued for 72 hours; then 10 μL of CCK-8 reagent was added to each well, and the incubation was continued for 1-3 hours; and then use a super microplate reader to measure their absorbance values at 450 nm and 650 nm. The half-inhibition concentration (IC50) was calculated using GraphPad Prism 8.0.0.

BaF3-ETV6-NTRK2 = target: T2, BaF3-ETV6-NTRK2 (Homo sapiens, UniProt Q16620); experiment: Cell proliferation inhibition (CCK-8), BaF3-ETV6-NTRK2 stable strain; settings: BaF3-ETV6-NTRK2, 72 hours
T2 construct: fused on or other part: P41212 (Transcription factor ETV6)
Protocol: as §1, §2

BaF3-ETV6-NTRK3 = target: T3, BaF3-ETV6-NTRK3 (Homo sapiens, UniProt Q16288); experiment: Cell proliferation inhibition (CCK-8), BaF3-ETV6-NTRK3 stable strain; settings: BaF3-ETV6-NTRK3, 72 hours
T3 construct: fused on or other part: P41212 (Transcription factor ETV6)
Protocol: as §1, §2

T3 sequence (Q16288 whole entry, the tested form may be a part): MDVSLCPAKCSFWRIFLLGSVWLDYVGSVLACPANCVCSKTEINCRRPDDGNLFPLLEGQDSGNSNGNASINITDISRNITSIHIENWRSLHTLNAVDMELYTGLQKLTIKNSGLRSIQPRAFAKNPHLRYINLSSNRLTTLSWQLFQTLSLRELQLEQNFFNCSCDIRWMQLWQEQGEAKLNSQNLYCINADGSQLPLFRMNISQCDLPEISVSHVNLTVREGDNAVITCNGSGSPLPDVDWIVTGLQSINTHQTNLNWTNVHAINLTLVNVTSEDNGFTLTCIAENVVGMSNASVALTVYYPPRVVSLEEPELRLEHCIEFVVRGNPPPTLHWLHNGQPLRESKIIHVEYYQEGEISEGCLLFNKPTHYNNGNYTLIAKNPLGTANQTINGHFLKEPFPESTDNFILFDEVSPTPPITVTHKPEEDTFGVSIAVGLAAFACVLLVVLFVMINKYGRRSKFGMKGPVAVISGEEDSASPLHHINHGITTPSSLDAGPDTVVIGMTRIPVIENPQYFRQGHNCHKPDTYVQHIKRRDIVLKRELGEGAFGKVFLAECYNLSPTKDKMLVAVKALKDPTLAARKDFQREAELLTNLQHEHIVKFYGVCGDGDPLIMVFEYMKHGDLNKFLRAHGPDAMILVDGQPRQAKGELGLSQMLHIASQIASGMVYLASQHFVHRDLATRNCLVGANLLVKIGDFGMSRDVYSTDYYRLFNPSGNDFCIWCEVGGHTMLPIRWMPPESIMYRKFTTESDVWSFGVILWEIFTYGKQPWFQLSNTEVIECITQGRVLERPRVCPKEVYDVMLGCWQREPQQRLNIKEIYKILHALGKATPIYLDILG
T1 sequence (P04629 510-796 limits assumed): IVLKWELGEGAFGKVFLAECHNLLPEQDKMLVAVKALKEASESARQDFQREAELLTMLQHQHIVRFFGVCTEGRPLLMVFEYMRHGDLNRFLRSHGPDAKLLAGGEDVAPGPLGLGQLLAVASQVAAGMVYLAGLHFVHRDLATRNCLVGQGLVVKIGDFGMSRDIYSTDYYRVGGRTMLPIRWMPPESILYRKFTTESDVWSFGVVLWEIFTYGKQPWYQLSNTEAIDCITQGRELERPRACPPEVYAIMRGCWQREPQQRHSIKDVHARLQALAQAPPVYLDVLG
T2 sequence (Q16620 538-822 limits assumed): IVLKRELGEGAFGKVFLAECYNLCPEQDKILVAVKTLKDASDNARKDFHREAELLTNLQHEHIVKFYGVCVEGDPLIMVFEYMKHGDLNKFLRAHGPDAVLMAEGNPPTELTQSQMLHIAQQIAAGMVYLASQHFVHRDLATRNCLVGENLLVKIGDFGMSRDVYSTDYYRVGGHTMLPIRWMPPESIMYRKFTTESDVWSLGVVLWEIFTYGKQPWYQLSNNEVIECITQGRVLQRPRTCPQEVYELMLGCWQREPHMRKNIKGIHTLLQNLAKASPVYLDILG

SMILES	IC50 (BaF3-CD74-NTRK1) [nM]	IC50 (BaF3-ETV6-NTRK2) [nM]	IC50 (BaF3-ETV6-NTRK3) [nM]
N#CCn1cc(/C=C/c2n[nH]c3ccc(NS(=O)(=O)c4cc(F)cc(F)c4)cc23)cn1 [CHW-1, (E)-N-(3-(2-(1-(cyanomethyl)-1H-pyrazol-4-yl)vinyl)-1H-indazol-5-yl)-3,5-difluorobenzene sulfonamide]	35.5	43.1	39.2
CC(=O)n1cc(/C=C/c2n[nH]c3ccc(NS(=O)(=O)c4cc(F)cc(F)c4)cc23)cn1 [CHW-2, (E)-N-(3-(2-(1-acetyl-1H-pyrazol-4-yl)vinyl)-1H-indazol-5-yl)-3,5-difluorobenzenesulfonamide]	107	185	127
O=S(=O)(Nc1ccc2[nH]nc(/C=C/c3cnn(CC(F)(F)F)c3)c2c1)c1cc(F)cc(F)c1 [CHW-3]	92	165	123
O=S(=O)(Nc1ccc2[nH]nc(/C=C/c3cnn(C4CC4)c3)c2c1)c1cc(F)cc(F)c1 [CHW-4]	3.1	8.2	7
O=S(=O)(Nc1ccc2[nH]nc(/C=C/c3ccccn3)c2c1)c1cccc(F)c1 [CHW-5, (E)-3-fluoro-N-(3-(2-(pyridin-2-yl)vinyl)-1H-indazol-5-yl)benzene sulfonamide]	27.3	70.1	59.5
O=S(=O)(Nc1ccc2[nH]nc(/C=C/c3cnn(CC(F)F)c3)c2c1)c1cc(F)cc(F)c1 [CHW-6]	23	60.1	53.5
CC(C)n1cc(/C=C/c2n[nH]c3ccc(NS(=O)(=O)c4cc(F)cc(F)c4)cc23)cn1 [CHW-7, (E)-3,5-difluoro-N-(3-(2-(1-isopropyl-1H-pyrazol-4-yl)vinyl)-1H-indazol-5-yl)benzenesulfonamide]	33.4	57.8	40.9
O=S(=O)(Nc1ccc2[nH]nc(/C=C/c3cccnc3)c2c1)c1cc(F)cc(F)c1 [CHW-8, (E)-3,5-difluoro-N-(3-(2-(pyridin-3-yl)vinyl)-1H-indazol-5-yl)benzenesulfonamide]	143	248	174
O=S(=O)(Nc1ccc2[nH]nc(/C=C/c3ccccn3)c2c1)c1cncc(F)c1 [CHW-9, (E)-5-fluoro-N-(3-(2-(pyridin-2-yl)vinyl)-1H-indazol-5-yl)pyridine-3-sulfonamide]	60.8	134	121
CN(C)C(=O)Cn1cc(/C=C/c2n[nH]c3ccc(NS(=O)(=O)c4cc(F)cc(F)c4)cc23)cn1 [CHW-10, (E)-2-(4-(2-(5-((3,5-difluorophenyl)sulfonamido)-1H-indazol-3-yl)vinyl)-1H-pyrazol-1-yl)-N,N-dimethylacetamide]	274	439	390
O=S(=O)(Nc1ccc2[nH]nc(/C=C/c3cnn(C(F)F)c3)c2c1)c1cc(F)cc(F)c1 [CHW-11]	53.8	103	111
CC(C)OCCn1cc(/C=C/c2n[nH]c3ccc(NS(=O)(=O)c4cc(F)cc(F)c4)cc23)cn1 [CHW-12]	33.8	55.8	48.1
COCCn1cc(/C=C/c2n[nH]c3ccc(NS(=O)(=O)c4cc(F)cc(F)c4)cc23)cn1 [CHW-13]	40.2	52.3	41.3
CNC(=O)Cn1cc(/C=C/c2n[nH]c3ccc(NS(=O)(=O)c4cc(F)cc(F)c4)cc23)cn1 [CHW-14, (E)-2-(4-(2-(5-((3,5-difluorophenyl)sulfonamido)-1H-indazol-3-yl)vinyl)-1H-pyrazol-1-yl)-N-methylacetamide]	331	427	350
N#Cc1cccc(Cc2ccc3[nH]nc(C#Cc4ccccn4)c3c2)c1 [DYX-136Q, 3-((3-(pyridin-2-ylethynyl)-1H-indazol-5-yl)methyl)benzonitrile]	4600	3100	2090
FC(F)(F)c1cccc(Cc2ccc3[nH]nc(C#Cc4ccccn4)c3c2)c1 [DYX-138Q]	> 10000	> 10000	> 10000
